Test results as given in BindingDB's records for doi:10.1016/j.bmcl.2019.126637 (Eli Lilly, 2019).

Biological target: Cyclin-Y/Cyclin-dependent kinase 16 (Homo sapiens, UniProt Q00536+Q8ND76)
Test: Competitive irreversible inhibition of CDK16/cyclin Y (unknown origin) in presence of Km ATP

Cyclin-Y/Cyclin-dependent kinase 16, sequence (Q00536 whole entry): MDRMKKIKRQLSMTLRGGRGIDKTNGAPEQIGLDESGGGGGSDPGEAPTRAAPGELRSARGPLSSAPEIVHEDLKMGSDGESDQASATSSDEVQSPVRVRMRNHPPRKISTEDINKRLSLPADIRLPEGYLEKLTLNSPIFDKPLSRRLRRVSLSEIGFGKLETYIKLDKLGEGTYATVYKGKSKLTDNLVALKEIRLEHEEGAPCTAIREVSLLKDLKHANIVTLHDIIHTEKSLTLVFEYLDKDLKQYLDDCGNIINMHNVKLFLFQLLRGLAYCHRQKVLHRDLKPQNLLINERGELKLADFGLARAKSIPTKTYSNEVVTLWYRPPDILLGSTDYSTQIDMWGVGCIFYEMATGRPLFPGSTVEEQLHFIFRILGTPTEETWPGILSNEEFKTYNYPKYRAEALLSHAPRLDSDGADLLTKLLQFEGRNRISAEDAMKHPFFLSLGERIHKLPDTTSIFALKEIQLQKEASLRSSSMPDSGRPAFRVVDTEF
Cyclin-Y/Cyclin-dependent kinase 16, sequence (Q8ND76 whole entry): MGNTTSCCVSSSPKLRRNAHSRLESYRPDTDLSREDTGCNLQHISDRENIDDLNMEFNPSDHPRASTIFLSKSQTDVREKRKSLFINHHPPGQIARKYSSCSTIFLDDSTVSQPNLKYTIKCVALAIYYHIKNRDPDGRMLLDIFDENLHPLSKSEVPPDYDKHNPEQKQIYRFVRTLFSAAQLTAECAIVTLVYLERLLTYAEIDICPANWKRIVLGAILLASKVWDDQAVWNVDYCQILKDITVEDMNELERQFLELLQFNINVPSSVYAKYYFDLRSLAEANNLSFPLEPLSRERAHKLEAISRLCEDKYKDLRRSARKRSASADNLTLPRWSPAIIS

For `CN(C)C/C=C/C(=O)Nc1cccc(S(=O)(=O)N2CCC(NC(=O)c3n[nH]cc3NC(=O)c3c(Cl)cc(Cl)cc3Cl)CC2)c1`, the IC50 was 10 nM.
